# Test results taken from the OPERA property sets (Mansouri et al. 2018).
# Conditions: not given
row,SMILES,solubility
1,OC[C@H]1O[C@H](OC[C@H]2O[C@H](O[C@]3(CO)O[C@H](CO)[C@@H](O)[C@@H]3O)[C@H](O)[C@@H](O)[C@@H]2O)[C@H](O)[C@@H](O)[C@H]1O,402 mM
2,Cc1cc(OC(=O)N(C)C)n(-c2ccccc2)n1,8.15 mM
3,CNC(=O)O/N=C1\[C@@H](Cl)[C@@H]2C[C@H](C#N)[C@H]1C2,8.28 mM
4,c1ccc2c(c1)-c1cccc3c1c-2cc1ccccc13,5.94e-06 mM
5,O=C1c2ccccc2C(=O)c2c1ccc(O)c2O,1.67 mM
6,CC1=C(C(=O)O)N2C(=O)[C@@H](NC(=O)[C@H](N)C3=CCC=CC3)[C@H]2SC1,61 mM
7,CCC(N)Cc1c[nH]c2ccccc12 (centres undefined),2.71 mM
8,Nc1ccc(O)c2c1C(=O)c1ccccc1C2=O,0.15 mM

# Same assay, conditions: 20 °C
row,SMILES,solubility
1,O=[N+]([O-])c1ccc(Cl)c(Cl)c1Cl,0.115 mM
2,Clc1cc(-c2cccc(Cl)c2Cl)cc(Cl)c1Cl,3.93e-05 mM
3,CC(=O)CCC1C(=O)N(c2ccccc2)N(c2ccccc2)C1=O,0.54 mM
4,Oc1ccc(/N=N/c2ccccc2)cc1,0.454 mM
5,C=CC1CN2CCC1CC2C(=O)c1ccnc2ccc(OC)cc12 (centres undefined),0.0093 mM
6,CCC(C)N (centres undefined),1530 mM
7,CCC1CCCCC1,0.0561 mM
8,C=CC(=O)Oc1c(Br)cc(Cl)c2cccnc12,0.0192 mM
9,COc1ccc2c3c1O[C@H]1[C@@H](O)C=C[C@H]4[C@@H](C2)N(C)CC[C@@]341,30.1 mM
10,CCOP(=S)(NC(C)C)Oc1ccccc1C(=O)OC(C)C (centres undefined),0.064 mM
11,CCSCc1ccccc1OC(=O)NC,8.08 mM
12,CC(=O)C=C(C)C,294 mM
13,Nc1cnn(-c2ccccc2)c(=O)c1Br,0.752 mM
14,Clc1ccc(Cl)c(-c2cc(Cl)c(Cl)c(Cl)c2)c1,4.84e-05 mM
15,C[C@@]12C(=O)OC(=O)[C@]1(C)C1CCC2O1,0.153 mM
16,C[C@@H]1CN[C@@H](C)CN1,3060 mM
17,Clc1cc(Cl)c(-c2c(Cl)c(Cl)cc(Cl)c2Cl)cc1Cl,1.14e-05 mM
18,CCc1ccc(CC)cc1,0.185 mM
19,CCc1ccccc1CC,0.53 mM
20,NCCS(=O)(=O)O,645 mM
21,N[C@H](CCCC(=O)O)C(=O)O,13.7 mM
22,Clc1ccc(-c2cccc(Cl)c2Cl)c(Cl)c1,0.000208 mM
23,O=C1C=C2CC3(O)COc4c(ccc(O)c4O)C3=C2C=C1O (centres undefined),2 mM
24,O=C(O)c1cnc(O)nc1O,11.5 mM
25,CCCCOC(=O)CCC,3.47 mM
26,O=[N+]([O-])c1c(O)ccc2ccccc12,1.06 mM
27,Cc1cccc(N)c1,140 mM

# Same assay, conditions: 21 °C
row,SMILES,solubility
1,C=C1c2cccc(O)c2C(=O)C2=C(O)[C@]3(O)C(=O)C(C(N)=O)=C(O)[C@@H](N(C)C)[C@@H]3[C@@H](O)[C@H]12,17.1 mM

# Same assay, conditions: 22 °C
row,SMILES,solubility
1,O=C(c1ccccc1)c1c(O)cc(O)cc1O,13.5 mM
2,COC(=O)NS(=O)(=O)c1ccc(N)cc1,21.7 mM
3,Cc1ccccc1Oc1cccnn1,10.7 mM

# Same assay, conditions: 23 °C
row,SMILES,solubility
1,Nc1nc(N)[nH]c(=O)n1,0.59 mM
2,Clc1ccccc1-c1cc(Cl)c(Cl)c(Cl)c1Cl,5.17e-05 mM
3,CCCC(C)(C)C(=O)Nc1ccc(Cl)cc1,0.0951 mM
4,COP(=O)(OC)OC1=C(Cl)C2C=CCC12 (centres undefined),9.97 mM
5,O=C1C(Cl)=C(NC(=O)C(Cl)Cl)C(=O)c2ccccc21,0.00942 mM

# Same assay, conditions: 24 °C
row,SMILES,solubility
1,CC(=O)OCCN1CCN(CCCN2c3ccccc3Sc3ccc(Cl)cc32)CC1,0.02 mM
2,COP(=S)(Oc1cc(Cl)c(Br)cc1Cl)c1ccccc1 (centres undefined),7.28e-05 mM
3,CCNP(=S)(OC)O/C(C)=C/C(=O)OC(C)C (centres undefined),0.391 mM
4,O=C(O)c1ccc(O)c(C(=O)O)c1,1.65 mM

# Same assay, conditions: 25 °C
row,SMILES,solubility
1,COc1ccc(C(O)(c2cncnc2)C2CC2)cc1 (centres undefined),2.54 mM
2,C#CCCCCCC,0.218 mM
3,C=CC1CC=CCC1 (centres undefined),0.462 mM
4,C=CCCC,2.11 mM
5,CC(=O)OCC(=O)[C@@]1(O)CC[C@H]2[C@@H]3CCC4=CC(=O)CC[C@]4(C)[C@H]3C(=O)C[C@@]21C,0.0497 mM
6,CCC(C(=O)O)C(=O)O,5390 mM
7,Clc1cc(-c2ccccc2)c(Cl)c(Cl)c1Cl,4.8e-05 mM
8,Nc1cc[nH]c(=O)n1,72 mM
9,CCC(N)C(=O)O (centres undefined),2050 mM
10,c1ccc2c(c1)OCCOCCOc1ccccc1OCCOCCO2,0.0203 mM
11,O=C(O)c1cc([N+](=O)[O-])cc([N+](=O)[O-])c1,6.37 mM
12,O=C(O)c1ccccc1[N+](=O)[O-],47 mM
13,OC(c1ccccc1)c1ccccc1,2.82 mM
14,Cc1cccc2c(C)cccc12,0.0175 mM
15,CCCCCCCCCCCCCCCCCCCCCCCCCCCCCCCCCCCC,3.35e-06 mM
16,CC(C)C(O)C(C)C,60.2 mM
17,CC(C)CCC(C)(C)C,0.00897 mM
18,Fc1cccc(CCl)c1,2.86 mM
19,Brc1ccc(Br)cc1,0.0848 mM
20,Clc1cccc(-c2cc(Cl)ccc2Cl)c1,0.000982 mM
21,CN(C)CC/C=C1\c2ccccc2COc2ccccc21,0.113 mM
22,COC(C)C,877 mM
23,Cc1c[nH]c(=S)[nH]c1=O,3.58 mM
24,CCCCC(C)CC (centres undefined),0.00693 mM
25,CCC(C)c1ccc(O)cc1 (centres undefined),6.39 mM
26,c1ccc2c(c1)Nc1ccccc1S2,0.00798 mM
27,CCCC(=O)OC,147 mM
28,C=C(Cl)CSC(=S)N(CC)CC,0.447 mM

row,SMILES,solubility
1,COc1cc(-c2ccc(N)c(OC)c2)ccc1N,0.246 mM
2,C1CCCC1,2.22 mM
3,C=C(C)CCC,0.927 mM
4,CCC(C)c1ccccc1 (centres undefined),0.131 mM
5,ClC(Cl)=C(c1ccc(Cl)cc1)c1ccccc1Cl,0.00044 mM
6,Clc1c(Cl)c(Cl)c(-c2ccccc2)c(Cl)c1Cl,1.23e-05 mM
7,c1ccc(Cc2ccccc2)cc1,0.0838 mM
8,ONc1ccccc1,259 mM
9,Clc1cc(Cl)c(Cl)c(Cl)c1,0.0236 mM
10,Cc1c(C(=O)O)c(O)cc2c1C(=O)c1c(O)c([C@@H]3O[C@H](CO)[C@@H](O)[C@H](O)[C@H]3O)c(O)c(O)c1C2=O,2.64 mM
11,CNc1ccccc1,52.4 mM
12,O=C(O)c1cccc(Cl)c1[N+](=O)[O-],2.33 mM
13,CCc1ccc(O)cc1,33.5 mM
14,Fc1ccc(I)cc1,0.749 mM
15,CC/C(=C(/CC)c1ccc(O)cc1)c1ccc(O)cc1,0.0447 mM
16,CC1CCC(C)CC1 (centres undefined),0.0342 mM
17,C1=CCCC1,7.85 mM
18,NC(=O)CC[C@H](N)C(=O)O,283 mM
19,O=C(O)c1ccccc1F,51.4 mM
20,CC(=O)O[C@@H](C(=O)O)c1ccccc1,58.7 mM
21,Cc1c2ccccc2c(C)c2ccccc12,0.000271 mM
22,COP(=O)(Oc1ccccc1)Oc1ccccc1,7.57 mM
23,O=C(O)c1ccc([N+](=O)[O-])cc1[N+](=O)[O-],85.8 mM
24,C=CCN(CC=C)C(=O)CCl,113 mM
25,O=C(O)COc1ccccc1Cl,6.86 mM
26,O=C(O)c1cc(I)cc(I)c1O,0.493 mM
27,CCC1(C2=CCCCCC2)C(=O)NC(=O)NC1=O,0.999 mM

# Same assay, conditions: 27 °C
row,SMILES,solubility
1,Cc1c(C)c2c3ccccc3ccc2c2ccccc12,9.75e-05 mM

# Same assay, conditions: 28 °C
row,SMILES,solubility
1,COc1ccc(C[C@H]2NC[C@H](O)[C@H]2OC(C)=O)cc1,24.7 mM

# Same assay, conditions: 30 °C
row,SMILES,solubility
1,CC1OC(C)OC(C)O1 (centres undefined),847 mM
2,C/C=C/C=C/C(=O)O,22.3 mM
3,CCCCn1c(=O)c2c(ncn2C)n(C)c1=O,23.7 mM
4,CCN(CC)CCOC(=O)c1ccc(N)cc1,40 mM
